# Patent US6632809B2, “Gyrase inhibitors and uses thereof” (Vertex Pharmaceuticals Incorporated, priority 2000, dated 2003)
# Columns and labels:
# test bacteria = test: Susceptibility Testing in Liquid Media (MIC assay); format: cell-based; details: broth dilution, MHB, 35° C. overnight (16 to 20 hr); organism not given; read-out: MIC (minimal inhibitory concentration) activity level
# Description: Susceptibility Testing in Liquid Media
# Compounds of this invention were also tested for antimicrobial activity by susceptibility testing in liquid media. Such assays were performed within the guidelines of the latest NCCLS document governing such practices: “M7-A5 Methods for dilution Antimicrobial Susceptibility Tests for Bacteria that Grow Aerobically; Approved Standard—Fifth Edition (2000)”. Other publications such as “Antibiotics in Laboratory Medicine” (Edited by V. Lorian, Publishers Williams and Wilkins, 1996) provide essential practical techniques in laboratory antibiotic testing. Essentially, several discrete bacterial colonies (3 to 7) from a freshly streaked plate were transferred to an appropriate rich broth medium such as MHB, supplemented where appropriate for the more fastidious organisms. This was grown overnight to high density followed by a 1 or 2-thousand-fold dilution to give an inoculation density of between 5×10^5 and 5×10^6 CFU per mL. Alternatively, the freshly picked colonies can be incubated at 37° C. for about 4 to 8 hrs until the culture equals or exceeds a turbidity of a 0.5 McFarland standard (approximately 1.5×10^8 cells per mL) and diluted to give the same CFU per mL as above. In a more convenient method, the inoculum was prepared using a commercially available mechanical device (the BBL PROMPT System) that involves touching five colonies directly with a wand, containing crosshatch grooves at its bottom, followed by suspension of the bacteria in an appropriate volume of saline. Dilution to the appropriate inoculum cell density was made from this cell suspension. The broth used for testing consists of MHB supplemented with 50 mg per L of Ca^2+ and 25 mg per L of Mg^2+. Standard dilution panels of control antibiotics were made and stored as in the NCCLS standard M7-A5, the dilution range typically being in the 128 μg per mL to 0.015 μg per mL (by 2-fold serial dilution). The test compounds were dissolved and diluted fresh for experimentation on the same day; the same or similar ranges of concentration as above being used. The test compounds and controls were dispensed into a multiwell plate and test bacteria added such that the final inoculation was approximately 5×10^4 CFU per well and the final volume was 100 μL. The plates were incubated at 35° C. overnight (16 to 20 hr) and checked by eye for turbidity or quantitated with a multiwell plate reader. […] Such determinations were also compared to the appropriate tables contained in the above two publications to ensure that the range of antibacterial activity is within the acceptable range for this standardized assay.
# The compound numbers correspond to the compound numbers in Table 1.
# [1] = target: DNA gyrase (374 kDa Gyr A2B2 subunit from Staphylococcus aureus) (Staphylococcus aureus, UniProt P0A0K8); test: Gyrase ATPase Assay; format: biochemical; details: 10 μM concentration, ATPase assay at 30° C., 0.9 mM ATP, average of duplicate values; for inhibition at 10 µM: read-out: Gyrase Inhibitory Activity (percent inhibition)
# Description: The ATP hydrolysis activity of DNA gyrase was measure by coupling the production of ADP through pyruvate kinase/lactate dehydrogenase to the oxidation of NADH. This method has been described previously (Tamura and Gellert, 1990, J. Biol. Chem., 265, 21342).
# ATPase assays are carried out at 30° C. in buffered solutions containing 100 mM TRIS pH 7.6, 1.5 mM MgCl2, 50 mM KCl. The coupling system contains (final concentrations) 2.5 mM phosphoenol pyruvate, 200 μM nicotinamide adenine dinucleotide (NADH), 1 mM DTT, […], and 10 ug/ml lactate dehydrogenase. 40 nanomolar enzyme (374 kDa Gyr A2B2 subunit from Staphylococcus aureus) and a DMSO solution of the inhibitor to a final concentration of 4% are added and the reaction mixture is allowed to incubate for 10 minutes at 30° C. The reaction is then started by the addition of ATP to a final concentration of 0.9 mM and the rate of NADH disappearance at 340 nanometers is measured over the course of 10 minutes. The percent inhibition values are determined from rate versus concentration profiles and are reported as the average of duplicate values.
# The compound numbers correspond to the compound numbers in Table 1. Compounds having an activity designated as “A” provided a percent inhibition value below 50 percent; compounds having an activity designated as “B” provided a percent inhibition value between 50 and 75 percent; and compounds having an activity designated as “C” provided a percent inhibition value greater than 75 percent.
# Sequence of DNA gyrase (374 kDa Gyr A2B2 subunit from Staphylococcus aureus) (P0A0K8 whole entry): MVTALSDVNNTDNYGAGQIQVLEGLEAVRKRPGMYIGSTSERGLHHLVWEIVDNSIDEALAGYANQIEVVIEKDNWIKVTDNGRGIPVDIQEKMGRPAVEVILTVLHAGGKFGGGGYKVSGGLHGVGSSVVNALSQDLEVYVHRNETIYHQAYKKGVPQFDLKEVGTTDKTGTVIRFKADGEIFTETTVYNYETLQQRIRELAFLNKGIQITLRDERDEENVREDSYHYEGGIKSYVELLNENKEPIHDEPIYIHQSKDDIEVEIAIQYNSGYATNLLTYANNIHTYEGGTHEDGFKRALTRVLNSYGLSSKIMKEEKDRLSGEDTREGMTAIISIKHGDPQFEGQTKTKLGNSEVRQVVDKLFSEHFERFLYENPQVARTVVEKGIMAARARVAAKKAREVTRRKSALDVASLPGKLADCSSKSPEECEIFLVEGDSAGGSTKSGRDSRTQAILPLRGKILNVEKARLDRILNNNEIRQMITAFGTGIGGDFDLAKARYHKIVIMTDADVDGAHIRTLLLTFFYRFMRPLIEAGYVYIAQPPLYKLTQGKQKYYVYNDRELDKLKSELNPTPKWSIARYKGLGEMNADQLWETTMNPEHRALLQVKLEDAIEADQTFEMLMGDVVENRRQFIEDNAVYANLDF
# Sequence of DNA gyrase (374 kDa Gyr A2B2 subunit from Staphylococcus aureus) (P20831 whole entry, further chain): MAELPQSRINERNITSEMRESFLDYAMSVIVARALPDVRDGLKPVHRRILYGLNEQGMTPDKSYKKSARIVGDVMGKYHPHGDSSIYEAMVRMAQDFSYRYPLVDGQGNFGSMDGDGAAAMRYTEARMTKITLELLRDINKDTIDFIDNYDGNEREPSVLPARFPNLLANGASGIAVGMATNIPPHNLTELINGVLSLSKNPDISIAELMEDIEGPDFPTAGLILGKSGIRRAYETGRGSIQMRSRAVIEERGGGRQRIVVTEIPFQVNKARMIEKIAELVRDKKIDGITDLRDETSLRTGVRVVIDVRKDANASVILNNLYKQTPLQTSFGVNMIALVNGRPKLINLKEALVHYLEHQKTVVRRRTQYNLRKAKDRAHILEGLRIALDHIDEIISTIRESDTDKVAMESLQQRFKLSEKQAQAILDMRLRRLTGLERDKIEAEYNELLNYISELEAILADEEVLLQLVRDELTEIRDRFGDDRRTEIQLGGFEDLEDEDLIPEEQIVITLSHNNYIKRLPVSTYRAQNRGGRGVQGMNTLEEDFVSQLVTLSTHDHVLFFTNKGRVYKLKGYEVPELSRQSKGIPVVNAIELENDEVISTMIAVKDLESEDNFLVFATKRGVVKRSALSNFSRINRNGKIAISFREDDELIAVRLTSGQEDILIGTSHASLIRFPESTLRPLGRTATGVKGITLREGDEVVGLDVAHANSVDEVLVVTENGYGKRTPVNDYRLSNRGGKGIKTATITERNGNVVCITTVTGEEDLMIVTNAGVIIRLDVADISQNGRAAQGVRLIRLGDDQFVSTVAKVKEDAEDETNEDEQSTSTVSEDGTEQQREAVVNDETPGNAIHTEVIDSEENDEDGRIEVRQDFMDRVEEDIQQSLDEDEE
SMILES,MIC (test bacteria) [µg/mL],inhibition at 10 µM [1] [%],Gyrase Inhibitory Activity (percent inhibition) [1]
CCNC(=O)Nc1nc2cc(-c3cccnc3)c3c(c2[nH]1)OC(F)(F)O3 [Ia-153],> 40,50 to 75,–
CCNC(=O)Nc1nc2cc(-n3cc(C(=O)NCc4cccnc4)cn3)ccc2[nH]1 [Ia-174],> 40,> 75,–
CCNC(=O)Nc1nc2cc(-c3ccc(N4CCOCC4)nc3)ccc2[nH]1 [Ia-166],> 40,> 75,–
CCNC(=S)Nc1nc2cc(-c3ccccc3)ccc2[nH]1 [Ia-90],< 10,–,C (provided a percent inhibition value greater than 75 percent)
CSc1ncc(-c2ccc3[nH]c(NC(=O)NC4CCCC4)nc3c2)cn1 [Ia-117],> 40,< 50,–
CCNC(=O)Nc1nc2cc(-c3cnc(NC(C)COC)nc3)c(OC)cc2[nH]1 (stereo not shown) [Ia-146],< 10,> 75,–
CC(C)NC(=O)Nc1nc2cc(-c3cccnc3)ccc2[nH]1 [Ia-120],> 40,50 to 75,–
CCNC(=O)Nc1nc2cc(-n3cnc(C(=O)N4CCOCC4)c3)ccc2[nH]1 [Ia-170],> 40,> 75,–
CCNC(=O)Nc1nc2cc(-n3ccc(=O)c(O)c3C)ccc2[nH]1 [Ia-161],> 40,< 50,–
CCNC(=O)Nc1nc2nc(-n3cnc(C(=O)O)c3)ccc2[nH]1 [Ia-185],> 40,> 75,–
"CCNC(=O)Nc1nc2cc(-n3cnc(C(=O)O)c3)ccc2[nH]1 [Ia-157, 1-[2-(3-Ethyl-ureido)-3H-benzoimidazol-5-yl]-1H-imidazole-4-carboxylic acid]",> 40,> 75,–
CCNC(=O)Nc1nc2nc(-n3cnc(C(=O)OC)c3)ccc2[nH]1 [Ia-184],> 40,50 to 75,–
CCNC(=O)Nc1nc2cc(-c3cnc(OC(C)COC)nc3)c(OC)cc2[nH]1 (stereo not shown) [Ia-140],< 10,> 75,–
C=CCCCOc1ccc(-c2ccc3[nH]c(NC(=O)NCC)nc3c2)cn1 [Ia-182],> 40,> 75,–
CCNC(=O)Nc1nc2cc(-n3cc(C(=O)NCC(C)C)cn3)ccc2[nH]1 [Ia-173],10 to 40,> 75,–
CCNC(=O)Nc1nc2cc(-c3cccnc3)cc(C)c2[nH]1 [Ia-58],< 10,> 75,–

SMILES,MIC (test bacteria) [µg/mL],inhibition at 10 µM [1] [%],Gyrase Inhibitory Activity (percent inhibition) [1]
CCNC(=O)Nc1nc2cc(-c3nnco3)ccc2[nH]1 [Ia-151],> 40,> 75,–
CCNC(=O)Nc1nc2cc(-c3ccc(N4CCC(O)C4)nc3)ccc2[nH]1 (stereo not shown) [Ia-179],> 40,> 75,–
CCNC(=O)Nc1nc2cc(-c3occc(=O)c3O)ccc2[nH]1 [Ia-181],> 40,50 to 75,–
CCNC(=O)Nc1nc2cc(-n3cnc(C(=O)NCc4cccnc4)c3)ccc2[nH]1 [Ia-171],10 to 40,> 75,–
CCNC(=O)Nc1nc2cc(-c3ccc(OCC)nc3)ccc2[nH]1 [Ia-163],< 10,> 75,–
CCNC(=O)Nc1nc2cc(-c3ccc(CN)cc3)ccc2[nH]1 [Ia-137],> 40,> 75,–
CCNC(=O)Nc1nc2cc(-c3cccnc3)c(OC)c(F)c2[nH]1 [Ia-183],> 40,50 to 75,–
CC(C)CNC(=O)Nc1nc2cc(-c3ccc(F)nc3)ccc2[nH]1 [Ia-159],> 40,< 50,–
CCNC(=O)Nc1nc2cc(-c3cccnc3)c(C)cc2[nH]1 [Ia-133],< 10,> 75,–
C=CCNC(=O)c1cn(-c2ccc3[nH]c(NC(=O)NCC)nc3c2)cn1 [Ia-188],< 10,> 75,–
CCNC(=O)Nc1nc2cc(-c3cccnc3)c(OC)c(C)c2[nH]1 [Ia-147],> 40,50 to 75,–
O=C(Nc1nc2cc(-c3cccnc3)ccc2[nH]1)NC1CCCC1 [Ia-121],> 40,< 50,–
CCNC(=O)Nc1nc2cc(-n3ccc(=O)c(OCc4ccccc4)c3C)ccc2[nH]1 [Ia-160],> 40,> 75,–
CCNC(=O)Nc1nc2nc(-n3cnc(C(=O)NC4CC4)c3)ccc2[nH]1 [Ia-187],10 to 40,> 75,–
CCCCNC(=O)c1cn(-c2ccc3[nH]c(NC(=O)NCC)nc3c2)cn1 [Ia-186],< 10,> 75,–
CCNC(=O)Nc1nc2cc(-c3nnc(C)o3)ccc2[nH]1 [Ia-150],> 40,50 to 75,–
